Measured values from patent US20230145342A1, “COMBINATORY TREATMENT” (AALTO UNIVERSITY FOUNDATION SR, priority 2020, published 2023).
In brackets after ≈: the same amount, converted by molar mass. Entries after “also recorded” stand apart in the source; their conditions may differ.

Experiments:
[1] = Analytical ultracentrifuge sedimentation velocity analysis of P[5]a with LPS; assay type: binding, Pseudomonas aeruginosa; settings: 135 μM P[5]a and 35 μM LPS, UV absorbance at 305 nm
Protocol: A clear initial peak of unbound P[5]a can be observer at low molecular weight (2260 Da), followed by a long and polydisperse collection of peaks, ranging from low molecular weight (S), to very high molecular weight (60.000 kDa) See Example 6.
The interaction of P[5]a with lipopolysaccharides of P. aeruginosa, strain PA10 was measured using AUC.
Analytical ultracentrifugation (AUC) is based on sedimentation of colloidal particles in a centrifugal field. During centrifugation particles move toward the bottom of the measuring cell. This movement leads to redistribution of particles along the measuring cell, which in turn can be expressed as a change in concentration along the measuring cell. The absorbance detector was used to follow the changes caused by centrifugation (absorbance is proportional to concentration). In simple words, in AUC the inventors measure how concentration changes during centrifugation, so they collect concentration profiles. Interaction between particles can be measured as a result of changes in the sedimentation profiles. […]
The spectra of both P[5]a and LPS from P. aeruginosa were first analysed separately (see FIG. 12 a and b). […] Because only the sedimentation of P[5]a was detected at 305 nm, the inventors were certain that any changes observed in the sedimentation profile, come from interactions between P[5]a and other particles. […]

[2] = test system: MDR resistant clinical isolates; assay: Coadministered antibiotics with P[5]a in MDR resistant clinical isolates (Example 8); assay type: cell-based
Source text: (§1) The effect of P[5]a on the penetration and efficacy of coadministered antibiotics Amikacin (a), Cefepime (b), Ceftazidime (c) and Meropenem (d) in MDR resistant clinical isolates were studied.

P. aeruginosa PAO1 [3] = assay: Antibiotic resistance buildup, daily MIC over 14 consecutive days; assay type: cell-based, Pseudomonas aeruginosa
Source text: Area below the yellow line means that the bacterium is classified as susceptible to the antibiotic. The area in between yellow and red means that the bacterium is intermediate susceptible to the antibiotic. The area above the red line means that the bacterium is classified as resistant to the antibiotic (According to the “Performance Standards for Antimicrobial Susceptibility Testing”, which is maintained by the Clinical and Laboratory Standards Institute).
Because of this, a combined administration of P[5]a with a variety of antibiotics was tested. MIC values with two different antibiotics, meropenem and cefepime (FIG. 2) were tested, over a period of 14 consecutive days (which more than surpasses the length of normal treatments, 7-10 days), when administered together with and without 2.5 mM P[5]a.
In this experiment, the minimum inhibitory concentration MIC was analyzed daily for 14 consecutive days, and the highest MIC values (so the highest concentration of antibiotic where the bacteria still grew) was used for the next day. This way, the buildup of resistance over time can be monitored. In FIG. 2, the area below the yellow line means that the bacterium is classified as susceptible to the antibiotic, the area in between yellow and red means that the bacterium is intermediate susceptible to the antibiotic and the area above the red line means that the bacterium is classified as resistant to the antibiotic (According to the “Performance Standards for Antimicrobial Susceptibility Testing”, which is maintained by the Clinical and Laboratory Standards Institute).
(§2) The effect of P[5]a on encountering resistance development in a pathogenic Gram-negative bacterium, Pserudomonas aeruginosa, strain PA01 was studied over 14-day period. The development of resistance over 14 continuous days by the pathogen PAO1 towards treatment with four clinically relevant antibiotics (meropenem, cefepime, aztreonam and tobramycin) and P[5]a was compared. […] In all antibiotic treatments, reduced susceptibility was observed from day 4 onwards, with complete resistance to all treatments after 12 days.
The effect of P[5]a on the enhancement of the penetration of coadministered antibiotics having intracellular targets (aztreonam, cefepime, meropenem and tobramycin) was studied over 14-day period in a pathogenic Gram-negative bacterium, Pserudomonas aeruginosa, strain PA01. […] MIC values were categorized in three groups according to the Clinical and Laboratory Standards Institute: susceptible, intermediate susceptible and resistant.

Pseudomonas aeruginosa = assay: RNA sequencing / Gene Set Enrichment Analysis with and without P[5]a; assay type: cell-based; settings: bacterial RNA with vs without P[5]a
Source text: Changes in gene expression levels are grouped in specific “gene sets”, which group all genes related to a specific function, for instance biofilm formation.
Pseudomonas aeruginosa is known to be one of the most problematic pathogenic micro-organisms. Indeed, in a laboratory environment, P. aeruginosa is resistant to nearly all antibiotics within a period of 3 to 4 days. Comparing the sequencing results of the bacterial RNA, with and without a pillarene[5]a (P[5]a, CAS No. 1351445-28-7), allowed the inventors to identify the processes that are affected by comparison with pre-determined gene set terms from the “KEGG pathway analysis” and the “GO Ontology” (see FIG. 1). These gene sets contain all the genes associated with a certain term, for instance “Biofilm”, and the inventors referenced all the genes affected by P[5]a, to these gene sets.

[4] = test system: resistant P. aeruginosa strains PA 5550, PA 5842, PA 5827, PA 5832, PA 5834 and PA 5539; assay: MIC of four antibiotics in presence or absence of P[5]a, Mueller broth; assay type: cell-based, Pseudomonas aeruginosa; settings: six resistant strains, presence vs absence of P[5]a
Source text: (§3) In FIG. 4 with P. aeruginosa strain PA 5834, P[5]a made the bacterium classify as “susceptible” again, whereas without P[5]a it was fully “resistant” to the antibiotics ceftazidime and cefepime (even growing in the highest concentration we tested). This could have major implications, because there have been many encounters already of “Pan-Drug resistant bacteria” bacteria that are classified as “resistant” to all known antibiotics. They are basically untreatable by current standards. P[5]a Virulence inhibitors, might make those bacteria susceptible again for treatment. In FIG. 5 with P. aeruginosa strain PA 5539, the overall resistance profile of the bacterium was much lower. […] Further testing was done on six resistant P. aeruginosa strains from the Helsinki hospital collection, PA 5550, PA 5842, PA 5827, PA 5832, PA 5834 and PA 5539 with four different antibiotics (amikacin, cefepime, ceftazidime and meropenem).

[5] = test system: Pserudomonas aeruginosa, strain PA01; assay: Biofilm formation; assay type: cell-based, Pseudomonas aeruginosa; settings: P[5]a in high concentrations
Protocol: The effect of P[5]a on the formation of biofilm by a pathogenic Gram-negative bacterium, Pserudomonas aeruginosa, strain PA01 was measured.
Biofilm is, alongside pyocyanin production, an important indicator of virulence in P. aeruginosa.

P. aeruginosa PAO1 [6] = assay: Pyocyanin toxin production followed over 14 days; assay type: cell-based, Pseudomonas aeruginosa; settings: for pyocyanin toxin formation: throughout 14 days
Source text: as §2

[7] = test system: multidrug resistant P. aeruginosa strain PA 5539; assay: MIC of antibiotics without and with P[5]a, Luria broth (sensitizing effect test); assay type: cell-based, Pseudomonas aeruginosa; settings: with vs without P[5]a
Protocol: (§4) Values in blue, yellow and orange indicate the bacterium is categorized as “susceptible”, “intermediate susceptible” and “resistant”, respectively, according to the “Performance Standards for Antimicrobial Susceptibility Testing”, which is maintained by the Clinical and Laboratory Standards Institute.
(§5) So, it was tested whether P[5]a could sensitize (increase the efficacy of) already resistant P. aeruginosa strains PA 5834 (FIG. 4) and PA 5539 (FIG. 5), that are resistant to a wide variety of antibiotics. To test this, two MDR P. aeruginosa strains from clinical isolates were used. These isolates were obtained from patients in the Meilahti hospital (Helsinki, Finland). The antibiotics used, and their different mechanisms of actions, are described in Table 2.
as §3

[8] = test system: Pseudomonas aeruginosa 5550; assay: Resistance profile of strain (Table 3); assay type: cell-based; settings: strain 5550
Source text: as §1

[9] = test system: Pseudomonas aeruginosa 2798 (ATCC 2798); assay: Resistance profile of strain (Table 3); assay type: cell-based; settings: strain 2798 (ATCC 2798)
Source text: as §1

[10] = test system: Pseudomonas aeruginosa 5832; assay: Resistance profile of strain (Table 3); assay type: cell-based; settings: strain 5832
Source text: as §1

[11] = test system: Pseudomonas aeruginosa 5542; assay: Resistance profile of strain (Table 3); assay type: cell-based; settings: strain 5542 P. aeruginosa
Source text: as §1

[12] = test system: Pseudomonas aeruginosa 5834; assay: Resistance profile of strain (Table 3); assay type: cell-based; settings: strain 5834
Source text: as §1

[13] = test system: Pseudomonas aeruginosa 5827; assay: Resistance profile of strain (Table 3); assay type: cell-based; settings: strain 5827
[14] = test system: Pseudomonas aeruginosa 5539; assay: Resistance profile of strain (Table 3); assay type: cell-based; settings: strain 5539
[15] = test system: multidrug resistant P. aeruginosa strain PA 5834; assay: MIC of antibiotics without and with P[5]a, Luria broth (sensitizing effect test); assay type: cell-based, Pseudomonas aeruginosa
Protocol: as §4, §5, §3

Structure (SMILES) | Antibiotic resistance (category) [8] | Antibiotic resistance (value given with the category, MIC) [8] [µg] | Antibiotic resistance (category) [9] | Antibiotic resistance (category) [10] | Antibiotic resistance (value given with the category, MIC) [10] [µg] | Antibiotic resistance (category) [11] | Antibiotic resistance (value given with the category, MIC) [11] [µg] | Antibiotic resistance (category) [12] | Antibiotic resistance (value given with the category, MIC) [12] | Antibiotic resistance (category) [13] | Antibiotic resistance (value given with the category, MIC) [13] [µg] | Antibiotic resistance (category) [14] | Antibiotic resistance (value given with the category, MIC) [14] [µg] | susceptibility classification (CLSI) ([15]; with P[5]a) | susceptibility classification (CLSI) ([15]; without P[5]a) | also measured
C[N+](C)(C)CCOc1cc2c(OCC[N+](C)(C)C)cc1Cc1cc(OCC[N+](C)(C)C)c(cc1OCC[N+](C)(C)C)Cc1cc(OCC[N+](C)(C)C)c(cc1OCC[N+](C)(C)C)Cc1cc(OCC[N+](C)(C)C)c(cc1OCC[N+](C)(C)C)Cc1cc(OCC[N+](C)(C)C)c(cc1OCC[N+](C)(C)C)C2.[Br-].[Br-].[Br-].[Br-].[Br-].[Br-].[Br-].[Br-].[Br-].[Br-] [P[5]a, 4,9,14,19,24,26,28,30,32,34-Deca[2-(trimethylammonio)ethoxy]hexacyclo[21.2.2.2^3,6.2^8,11.2^13,16.2^18,21]pentatriaconta1(25),3,5,8,10,13,15,18,20,23,26,28,30,32,34-pentadecaene ⋅ 10bromide] | – | – | – | – | – | – | – | – | – | – | – | – | – | – | – | interaction with LPS [1]: strong interaction; also recorded: capable of interacting with multiple LPS particles; penetration and efficacy of coadministered antibiotics Amikacin, Cefepime, Ceftazidime and Meropenem [2]: enhances; direct antimicrobial properties (P. aeruginosa PAO1 [3]): lacks direct antimicrobial properties; buildup of resistance to meropenem and cefepime when P[5]a is added (P. aeruginosa PAO1 [3]; 2.5 mM P[5]a, 14 consecutive days): significantly reduced; bacterial antibiotic resistance genes (MexCD-OprJ, MexAB-OprM, mexXY) (Pseudomonas aeruginosa): significantly down-regulates; gene sets associated with virulence factors (Biofilm, Quorum Sensing, Bioverdine biosynthetic process, Biosynthesis of Secondary Metabolites) (Pseudomonas aeruginosa; KEGG and GO gene sets): downregulated; sensitizing effects on amikacin, cefepime, ceftazidime and meropenem [4]: In all cases the sensitizing effects were observed; biofilm formation [5]: significantly reduced; resistance development towards P[5]a (decrease of effectivity of toxin inhibition) (P. aeruginosa PAO1 [6]; 14-day period): does not encounter resistance development; also recorded: no observable decrease of effectivity; pyocyanin toxin formation (P. aeruginosa PAO1 [6]): successfully suppressed; bacterial viability (P. aeruginosa PAO1 [6]; throughout 14 days of P[5]a treatment): no decrease; pyocyanin toxin formation (P. aeruginosa PAO1 [6]; listed as P5a): very efficient in suppressing; sensitizing effect on antibiotics [7]: sensitizing effect could be seen with nearly all antibiotics
CO/N=C(\C(=O)N[C@@H]1C(=O)N2C(C(=O)[O-])=C(C[N+]3(C)CCCC3)CS[C@H]12)c1csc(N)n1 [cefepime, Cefepime] | Intermediate susceptible | 16 | Intermediate susceptible | Intermediate susceptible | 8 | resistant | 32 | resistant | cefepime 64 ug, ceftazidime 64 ug and meropenem 64 ug | resistant | 32 | intermediate | 8 | susceptible | resistant | MIC (P. aeruginosa PAO1 [3]; Pseudomonas aeruginosa, PAO1, 96 h, after four days, highest concentration of antibiotic included): 128 µg/mL (≈ 266 µM); development of resistance by the pathogen to the respective antibiotic (P. aeruginosa PAO1 [3]; coadministration of P[5]a with the antibiotic, 14-day period): greatly slowed
CC(C)(O/N=C(\C(=O)N[C@@H]1C(=O)N2C(C(=O)[O-])=C(C[n+]3ccccc3)CS[C@H]12)c1csc(N)n1)C(=O)O [ceftazidime, Ceftazidime] | resistant | 16 | Aztreonam & Cefepime, Resistant to Ceftazidime, Cirpofloxacin, | resistant | 16 | resistant | 32 | resistant | cefepime 64 ug, ceftazidime 64 ug and meropenem 64 ug | resistant | 64 | resistant | 8 | susceptible | resistant | –
